{"source": "patent US20150203471A1", "about": "“METHODS FOR IMPROVING CHICKEN PRODUCTION” (ELI LILLY AND COMPANY, priority 2012, published 2015)", "key": {"male broilers [1]": {"system": "male broilers", "test": "Study 1: growth performance and carcass responses of male broilers, compounds in feed vs positive and negative controls", "assay_type": "in vivo, chicken", "details": "14 days; for change in vivo at 15 ppm, 15 µg/mL: Gallus gallus, feed or water, 336 h; for change in vivo at 15 ppm, 15 µg/mL / Ave daily live wt gain % inc. / Breast wt % inc. / Feed intake % inc. / Gain effic % inc. / Leg wt % inc. / Fat Pad wt % dec.: 15 ppm in feed ad libitum; for change in vivo at 15 ppm, 15 µg/mL / Ave daily live wt gain % inc. / Breast wt % inc. / Feed intake % inc. / Gain effic % inc. / Leg wt % inc.: percent change from negative control; for Fat Pad wt % dec.: percent decrease from negative control; for improvement versus negative control and positive control (in words): positive control = Compound 1", "text": "An objective of this study is to evaluate growth performance and carcass responses of male broilers by comparing non-zero dosages of the above compounds versus a positive control (Compound 1) and negative controls. Table 1 sets out the specific treatment groups:\n(§1) The route of administration is oral, with the compounds mixed in feed, and provided Ad libitum. The age of the chickens of Day 1 of the study is 35 days old. Body weights are taken on the following days: • 1) Study Day 1 (pen weight) • 2) Study Day 14 (individual animal weights) • 3) Study Day 15 (individual weights on selected animals) • 4) Study Day 16 (blocks 1-5) • 5) Study Day 17 (blocks 6-10).\n(§2) Following collection of final weights, the following processing data is collected (hot weights) on individual animals: • 1) Live weight • 2) Hot carcass weight • 3) Fat pad weight • 4) Hot breast muscle weight • 5) Hot bone in leg weight"}, "male broilers [2]": {"system": "male broilers", "test": "Study 2: growth performance and carcass responses of male broilers, compounds in feed in the last 14 days prior to slaughter", "assay_type": "in vivo, chicken", "procedure": "Compounds 2, 5, and 9 are used in this study. The study is conducted to evaluate growth performance and carcass responses of male broilers by comparing non-zero dosages of the compounds, versus negative control, administered in the last 14 days prior to slaughter. Table 3 sets out the specific treatment groups.\nas §1, with “15” for “14”, “16” for “15”, “animals in animals in blocks 1-4)” for “animals)”, “Day” for “Day 16 (blocks 1-5) • 5) Study Day”, “(individual weights on selected animals in animals in blocks 5-8)” for “(blocks 6-10).”\nas §2"}, "[3]": {"details": "male broilers 35 days old at Day 1, * in cell = not significant vs negative control, read-out: ADG % inc."}, "[4]": {"details": "male broilers, * in cell = not significant, read-out: Hot carcass wt % inc."}, "[5]": {"details": "male broilers, * in cell = not significant"}}, "note": "Counter-ions that a name gives are not always drawn. Like-named read-outs stand apart in the source and are kept apart here.", "data": [{"compound": "CC(C)(Cc1ccc(Oc2ccc(C(=O)O)cc2)cc1)NC[C@H](O)COc1cccc(O)c1", "note": "(stereo in doubt) [Compound 8, 4-[4-(2-{[2-hydroxy-3-(3-hydroxyphenoxy)propyl]amino}-2-methylpropyl)phenoxy]benzoic acid dihydrochloride]", "values": [{"measurement": "change in vivo at 15 ppm, 15 µg/mL", "setting": "male broilers [1]; [3]", "value": -0.4, "unit": "%"}, {"measurement": "change in vivo at 15 ppm, 15 µg/mL", "setting": "male broilers [1]; [4]", "value": 0.8, "unit": "%"}]}, {"compound": "CC(C)(Cc1ccc(Oc2ncccc2C#N)cc1)NC[C@H](O)COc1ccccc1-c1cccs1", "note": "[Compound 1, 2-[4-(2-{[(2S)-2-hydroxy-3-(2-thiophen-2-ylphenoxy)propyl]amino}-2-methylpropyl)phenoxy]pyridine-3-carbonitrile, reference compound]", "values": [{"measurement": "Ave daily live wt gain % inc.", "setting": "male broilers [1]; [5]", "value": 4.0, "unit": "%"}, {"measurement": "Breast wt % inc.", "setting": "male broilers [1]; [5]", "value": "3.5* %"}, {"measurement": "Feed intake % inc.", "setting": "male broilers [1]; [5]", "value": 2.7, "unit": "%"}, {"measurement": "Gain effic % inc.", "setting": "male broilers [1]; [5]", "value": "1.6* %"}, {"measurement": "Leg wt % inc.", "setting": "male broilers [1]; [5]", "value": "1.2* %"}, {"measurement": "Fat Pad wt % dec.", "setting": "male broilers [1]; [5]", "value": "9.8* %"}, {"measurement": "growth performance parameters improved (in words)", "setting": "male broilers [1]; 15 ppm in feed, vs negative control", "value": "improved ADG, feed intake, average daily live weight gain only"}, {"measurement": "change in vivo at 15 ppm, 15 µg/mL", "setting": "male broilers [1]; [3]", "value": 4.4, "unit": "%"}, {"measurement": "change in vivo at 15 ppm, 15 µg/mL", "setting": "male broilers [1]; [4]", "value": 2.4, "unit": "%"}]}, {"compound": "CC(C)(Cc1ccc(Oc2ccc(C(=O)N3CCOCC3)cn2)cc1)NC[C@H](O)COc1cccc2[nH]ncc12", "note": "[Compound 2, (2S)-1-{[1,1-dimethyl-2-(4-{[5-(morpholin-4-ylcarbonyl)pyridin-2-yl]oxy}phenyl)ethyl]amino}-3-(1H-indazol-4-yloxy)propan-2-ol]", "values": [{"measurement": "Ave daily live wt gain % inc.", "setting": "male broilers [1]; [5]", "value": 8.3, "unit": "%"}, {"measurement": "Breast wt % inc.", "setting": "male broilers [1]; [5]", "value": 6.1, "unit": "%"}, {"measurement": "Feed intake % inc.", "setting": "male broilers [1]; [5]", "value": 4.8, "unit": "%"}, {"measurement": "Gain effic % inc.", "setting": "male broilers [1]; [5]", "value": 3.8, "unit": "%"}, {"measurement": "Leg wt % inc.", "setting": "male broilers [1]; [5]", "value": 8.2, "unit": "%"}, {"measurement": "Fat Pad wt % dec.", "setting": "male broilers [1]; [5]", "value": "12.8* %"}, {"measurement": "fat pad weight (in words)", "setting": "male broilers [1]; 15 ppm in feed", "value": "reduce fat pad weight"}, {"measurement": "feed intake (in words)", "setting": "male broilers [1]; 15 ppm in feed", "value": "significant increase in feed intake"}, {"measurement": "gain versus untreated control (in words)", "setting": "male broilers [1]; 15 ppm in feed", "value": "significantly greater than untreated control"}, {"measurement": "improvement versus negative control and positive control (in words)", "setting": "male broilers [1]; 15 ppm in feed", "value": "significantly better improvement than both the negative control and the positive control"}, {"measurement": "change in vivo at 15 ppm, 15 µg/mL", "setting": "male broilers [1]; [3]", "value": 8.7, "unit": "%"}, {"measurement": "change in vivo at 15 ppm, 15 µg/mL", "setting": "male broilers [1]; [4]", "value": 6.1, "unit": "%"}, {"measurement": "ADFI versus negative control group", "setting": "male broilers [2]; 3.5 ppm in feed", "value": "significantly lower"}, {"measurement": "F/G ratio (feed:gain efficiency) versus negative control group", "setting": "male broilers [2]; 7 ppm in feed", "value": "significantly lower"}, {"measurement": "G/F ratio (gain:feed efficiency) versus negative control group", "setting": "male broilers [2]; 7 ppm in feed", "value": "significantly higher"}, {"measurement": "hot bone-in leg weight versus negative control group", "setting": "male broilers [2]; 7 ppm in feed", "value": "significantly higher"}, {"measurement": "hot breast muscle weight versus negative control group", "setting": "male broilers [2]; 7 ppm in feed", "value": "significantly higher"}, {"measurement": "hot carcass weight versus negative control group", "setting": "male broilers [2]; 7 ppm in feed", "value": "significantly higher"}]}, {"compound": "CC(C)(Cc1ccc(Oc2ccc(S(C)(=O)=O)cc2)cc1)NC[C@H](O)COc1cccc2[nH]c(=S)[nH]c12", "note": "[Compound 3, 4-({(2S)-3-[(1,1-dimethyl-2-{4-[4-(methylsulfonyl)phenoxy]phenyl}ethyl)amino]-2-hydroxypropyl}oxy)-1,3-dihydro-2H-benzimidazole-2-thione]", "values": [{"measurement": "change in vivo at 15 ppm, 15 µg/mL", "setting": "male broilers [1]; [3]", "value": 1.6, "unit": "%"}, {"measurement": "change in vivo at 15 ppm, 15 µg/mL", "setting": "male broilers [1]; [4]", "value": 2.7, "unit": "%"}]}, {"compound": "CC(C)(Cc1ccc(Oc2ncccc2C(N)=O)cc1)NC[C@H](O)COc1ccccc1-c1cc2ccccc2[nH]1", "note": "[Compound 4, 2-{4-[2-({(2S)-2-hydroxy-3-[2-(1H-indol-2-yl)phenoxy]propyl}amino)-2-methylpropyl]phenoxy}pyridine-3-carboxamide]", "values": [{"measurement": "change in vivo at 15 ppm, 15 µg/mL", "setting": "male broilers [1]; [3]", "value": -1.6, "unit": "%"}, {"measurement": "change in vivo at 15 ppm, 15 µg/mL", "setting": "male broilers [1]; [4]", "value": 0.3, "unit": "%"}]}, {"compound": "CC(C)(Cc1ccc(Oc2ccc(C(=O)N3CCOCC3)cn2)cc1)NC[C@H](O)COc1cccc2[nH]ccc12", "note": "[Compound 6, (2S)-1-{[1,1-dimethyl-2-(4-{[5-(morpholin-4-ylcarbonyl)pyridin-2-yl]oxy}phenyl)ethyl]amino}-3-(1H-indol-4-yloxy)propan-2-ol]", "values": [{"measurement": "change in vivo at 15 ppm, 15 µg/mL", "setting": "male broilers [1]; [3]", "value": 3.9, "unit": "%"}, {"measurement": "change in vivo at 15 ppm, 15 µg/mL", "setting": "male broilers [1]; [4]", "value": 3.8, "unit": "%"}]}, {"compound": "CC(C)(Cc1ccc(Oc2ccc(S(C)(=O)=O)cc2S(C)(=O)=O)cc1)NC[C@H](O)COc1cccc2[nH]c(C(N)=O)cc12", "note": "[Compound 7, 4-({(2S)-3-[(2-{4-[2,4-bis(methylsulfonyl)phenoxy]phenyl}-1,1-dimethylethyl)amino]-2-hydroxypropyl}oxy)-1H-indole-2-carboxamide]", "values": [{"measurement": "change in vivo at 15 ppm, 15 µg/mL", "setting": "male broilers [1]; [3]", "value": 2, "unit": "%"}, {"measurement": "change in vivo at 15 ppm, 15 µg/mL", "setting": "male broilers [1]; [4]", "value": 1.2, "unit": "%"}]}, {"compound": "CC(C)(Cc1ccc(Oc2ncccc2C(N)=O)cc1)NC[C@H](O)COc1cccc2[nH]ncc12", "note": "[Compound 9, 2-[4-(2-{[(2S)-2-hydroxy-3-(1H-indazol-4-yloxy)propyl]amino}-2-methylpropyl)phenoxy]pyridine-3-carboxamide]", "values": [{"measurement": "Ave daily live wt gain % inc.", "setting": "male broilers [1]; [5]", "value": 9.3, "unit": "%"}, {"measurement": "Breast wt % inc.", "setting": "male broilers [1]; [5]", "value": 4.8, "unit": "%"}, {"measurement": "Feed intake % inc.", "setting": "male broilers [1]; [5]", "value": "2.1* %"}, {"measurement": "Gain effic % inc.", "setting": "male broilers [1]; [5]", "value": 6.7, "unit": "%"}, {"measurement": "Leg wt % inc.", "setting": "male broilers [1]; [5]", "value": 7.9, "unit": "%"}, {"measurement": "Fat Pad wt % dec.", "setting": "male broilers [1]; [5]", "value": 17.8, "unit": "%"}, {"measurement": "fat pad weight (in words)", "setting": "male broilers [1]; 15 ppm in feed", "value": "reduce fat pad weight"}, {"measurement": "feed intake (in words)", "setting": "male broilers [1]; 15 ppm in feed", "value": "significant increase in feed intake"}, {"measurement": "gain versus untreated control (in words)", "setting": "male broilers [1]; 15 ppm in feed", "value": "significantly greater than untreated control"}, {"measurement": "significance of the fat pad weight difference", "setting": "male broilers [1]; 15 ppm in feed", "value": "significant"}, {"measurement": "improvement versus negative control and positive control (in words)", "setting": "male broilers [1]; 15 ppm in feed", "value": "significantly better improvement than both the negative control and the positive control"}, {"measurement": "change in vivo at 15 ppm, 15 µg/mL", "setting": "male broilers [1]; [3]", "value": 8.9, "unit": "%"}, {"measurement": "change in vivo at 15 ppm, 15 µg/mL", "setting": "male broilers [1]; [4]", "value": 5, "unit": "%"}, {"measurement": "F/G ratio (feed:gain efficiency) versus negative control group", "setting": "male broilers [2]; 3.5 ppm in feed", "value": "significantly lower"}, {"measurement": "G/F ratio (gain:feed efficiency) versus negative control group", "setting": "male broilers [2]; 3.5 ppm in feed", "value": "significantly higher"}, {"measurement": "hot bone-in leg weight versus negative control group", "setting": "male broilers [2]; 3.5 ppm in feed", "value": "significantly higher"}, {"measurement": "hot breast muscle weight versus negative control group", "setting": "male broilers [2]; 3.5 ppm in feed", "value": "significantly higher"}, {"measurement": "hot carcass weight versus negative control group", "setting": "male broilers [2]; 3.5 ppm in feed", "value": "significantly higher"}, {"measurement": "ADFI versus negative control group", "setting": "male broilers [2]; 7 ppm in feed", "value": "significantly higher"}, {"measurement": "ADG versus negative control group", "setting": "male broilers [2]; 7 ppm in feed", "value": "significantly higher"}, {"measurement": "F/G ratio (feed:gain efficiency) versus negative control group", "setting": "male broilers [2]; 7 ppm in feed", "value": "significantly lower"}, {"measurement": "G/F ratio (gain:feed efficiency) versus negative control group", "setting": "male broilers [2]; 7 ppm in feed", "value": "significantly higher"}, {"measurement": "hot bone-in leg weight versus negative control group", "setting": "male broilers [2]; 7 ppm in feed", "value": "significantly higher"}, {"measurement": "hot breast muscle weight versus negative control group", "setting": "male broilers [2]; 7 ppm in feed", "value": "significantly higher"}, {"measurement": "hot carcass weight versus negative control group", "setting": "male broilers [2]; 7 ppm in feed", "value": "significantly higher"}]}]}
